Laboratory results published in patent US6737383B1, “Herbicidal oxadiazolidines” (priority 1999, dated 2004).

Columns and labels:
common ragweed = test: Test D common ragweed; type: in vivo, Ambrosia elatior; conditions: Preemergence, 0 to 100 scale
Method in brief: (§1)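 Greenhouse pots, seeds in sandy loam; compounds formulated in non-phytotoxic solvent with surfactant; preemergence treatments went on the soil surface within one day of planting. Injury rated visually 14 to 21 days after application on a 0 (none) to 100 (complete control) scale.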

surinam grass = test: Test D surinam grass; type: in vivo, Brachiaria decumbens; conditions: Preemergence, 0 to 100 scale
Method in brief: as §1

common groundsel = test: Test D common groundsel; type: in vivo, Senecio vulgaris; conditions: Preemergence, 0 to 100 scale
Method in brief: as §1

Green foxtail [1] = test: Test D green foxtail; type: in vivo; conditions: Preemergence, 0 to 100 scale
Method in brief: as §1

sandbur = test: Test D sandbur; type: in vivo, Cenchrus echinatus; conditions: Preemergence, 0 to 100 scale
Method in brief: as §1

goosegrass = test: Test D goosegrass; type: in vivo, Eleusine indica; conditions: Preemergence, 0 to 100 scale
Method in brief: as §1

Alexandergrass = test: Test D Alexandergrass; type: in vivo, Brachiaria plantaginea; conditions: Preemergence, 0 to 100 scale
Method in brief: as §1

pitted morningglory = test: Test D pitted morningglory; type: in vivo, Ipomoea lacunosa; conditions: Preemergence, 0 to 100 scale
Method in brief: as §1

Johnson grass = test: Test D Johnson grass; type: in vivo, Sorghum halepense; conditions: Preemergence, 0 to 100 scale
Method in brief: as §1

Green foxtail [2] = test: Test D green foxtail; type: in vivo
Method in brief: as §1

purple nutsedge = test: Test D purple nutsedge; type: in vivo, Cyperus rotundus; conditions: Preemergence, 0 to 100 scale
Method in brief: as §1

guineagrass = test: Test D guineagrass; type: in vivo, Panicum maximum; conditions: Preemergence, 0 to 100 scale
Method in brief: as §1

bermuda-grass = test: Test D bermudagrass; type: in vivo, Cynodon dactylon; conditions: Preemergence, 0 to 100 scale
Method in brief: as §1

Spanishneedles = test: Test D Spanishneedles; type: in vivo, Bidens bipinnata; conditions: Preemergence, 0 to 100 scale
Method in brief: as §1

itchgrass = test: Test D itchgrass; type: in vivo, Rottboellia exaltata; conditions: Preemergence, 0 to 100 scale
Method in brief: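 Scoring used a 0–100 visual injury scale, with 0 meaning no effect and 100 complete control, assessed 14–21 days after application alongside untreated pots. Preemergence treatments went onto sandy loam surfaces of separately potted seeds within a day of sowing.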

dallisgrass = test: Test D dallisgrass; type: in vivo, Paspalum dilatatum; conditions: Preemergence, 0 to 100 scale
Method in brief: as §1

tall mallow = test: Test D tall mallow; type: in vivo, Malva sylvestris; conditions: Preemergence, 0 to 100 scale
Method in brief: as §1

large crabgrass = test: Test D large crabgrass; type: in vivo, Digitaria sanguinalis; conditions: Preemergence, 0 to 100 scale
Method in brief: as §1

[3] = Rate 16 g/ha, 0 no injury, 100 complete control
[4] = Rate 32 g/ha, 0 no injury, 100 complete control
[5] = Rate 64 g/ha, 0 no injury, 100 complete control
[6] = Rate 125 g/ha, 0 no injury, 100 complete control
[7] = Rate 64 g/ha, Preemergence; 0 to 100 scale, 0 no injury, 100 complete control
[8] = Rate 125 g/ha, Preemergence; 0 to 100 scale, 0 no injury, 100 complete control

In the case of `CC(C)N(C(=O)n1oc(=O)n(C2CCCCC2)c1=O)c1ccc(F)cc1F` [Compound 115], the “Plant response rating, C. ragweed” value (common ragweed; [3]) is reported as 0, the “Plant response rating, C. ragweed” value (common ragweed; [4]) is reported as 0 and the “Plant response rating, C. ragweed” value (common ragweed; [5]) is reported as 0. For the same compound, the “Plant response rating, C. ragweed” value (common ragweed; [6]) was 10, the “Plant response rating, C. ragweed” value (common ragweed; Rate 250 g/ha) was 20 and the “Plant response rating, C. ragweed” value (common ragweed; Rate 500 g/ha) was 20. The “Plant response rating, Surinam grass” value (surinam grass; [3]) was 0, the “Plant response rating, Surinam grass” value (surinam grass; [4]) was 20 and the “Surinam grass plant response rating” value (surinam grass; [5]) was 65. For the same compound, the “Surinam grass plant response rating” value (surinam grass; [6]) was 75, the “Plant response rating, Surinam grass” value (surinam grass; Rate 250 g/ha) was 75 and the “Plant response rating, Surinam grass” value (surinam grass; Rate 500 g/ha) was 85. For the same compound, the “Plant response rating, Com. groundsel” value (common groundsel; [3]) was 0, the “Plant response rating, Com. groundsel” value (common groundsel; [4]) was 0 and the “Plant response rating, Com. groundsel” value (common groundsel; [5]) was 10. For the same compound, the “Plant response rating, Com. groundsel” value (common groundsel; [6]) was 10, the “Plant response rating, Com. groundsel” value (common groundsel; Rate 250 g/ha) was 10 and the “Plant response rating, Com. groundsel” value (common groundsel; Rate 500 g/ha) was 98. The “Plant response rating, Green foxtail” value (Green foxtail [1]; Rate 250 g/ha) was 100, the “Plant response rating, Green foxtail” value (Green foxtail [1]; Rate 500 g/ha) was 100 and the “Plant response rating, Sandbur” value (sandbur; [3]) was 0. For the same compound, the “Plant response rating, Sandbur” value (sandbur; [4]) was 0, the “Sandbur plant response rating” value (sandbur; [5]) was 0 and the “Sandbur plant response rating” value (sandbur; [6]) was 40. The “Plant response rating, Sandbur” value (sandbur; Rate 250 g/ha) was 50, the “Plant response rating, Sandbur” value (sandbur; Rate 500 g/ha) was 100 and the “Plant response rating, Goosegrass” value (goosegrass; [3]) was 20. The “Plant response rating, Goosegrass” value (goosegrass; [4]) was 85, the “Plant response rating, Goosegrass” value (goosegrass; [5]) was 90 and the “Plant response rating, Goosegrass” value (goosegrass; [6]) was 98. For the same compound, the “Plant response rating, Goosegrass” value (goosegrass; Rate 250 g/ha) was 100, the “Plant response rating, Goosegrass” value (goosegrass; Rate 500 g/ha) was 100 and the “Plant response rating, Alexandergrass” value (Alexandergrass; [3]) was 0. The “Plant response rating, Alexandergrass” value (Alexandergrass; [4]) was 20, the “Plant response rating, Alexandergrass” value (Alexandergrass; [5]) was 50 and the “Plant response rating, Alexandergrass” value (Alexandergrass; [6]) was 75. The “Plant response rating, Alexandergrass” value (Alexandergrass; Rate 250 g/ha) was 85, the “Plant response rating, Alexandergrass” value (Alexandergrass; Rate 500 g/ha) was 100 and the “Plant response rating, P. morninglory” value (pitted morningglory; [3]) was 0. For the same compound, the “Plant response rating, P. morninglory” value (pitted morningglory; [4]) was 0, the “Plant response rating, P. morninglory” value (pitted morningglory; [5]) was 0 and the “Plant response rating, P. morninglory” value (pitted morningglory; [6]) was 0. For the same compound, the “Plant response rating, P. morninglory” value (pitted morningglory; Rate 250 g/ha) was 0, the “Plant response rating, P. morninglory” value (pitted morningglory; Rate 500 g/ha) was 10 and the “Plant response rating Johnsongrass” value (Johnson grass; [3]) was 0. For the same compound, the “Plant response rating Johnsongrass” value (Johnson grass; [4]) was 40, the “Plant response rating Johnsongrass” value (Johnson grass; [5]) was 40 and the “Plant response rating Johnsongrass” value (Johnson grass; [6]) was 60. The “Plant response rating Johnsongrass” value (Johnson grass; Rate 250 g/ha) was 75, the “Plant response rating Johnsongrass” value (Johnson grass; Rate 500 g/ha) was 90 and the “Plant response rating, Green foxtail” value (Green foxtail [2]; Preemergence; Rate 16 g/ha; 0 to 100 scale, 0 no injury, 100 complete control) was 0. The “Plant response rating, Green foxtail” value (Green foxtail [2]; Preemergence; Rate 32 g/ha; 0 to 100 scale, 0 no injury, 100 complete control) was 70, the “Plant response rating, Green foxtail” value (Green foxtail [2]; Rate 16 g/ha; Preemergence; 0 to 100 scale, 0 no injury, 100 complete control) was 0 and the “Plant response rating, Green foxtail” value (Green foxtail [2]; Rate 32 g/ha; Preemergence; 0 to 100 scale, 0 no injury, 100 complete control) was 75. The “Green foxtail plant response rating” value (Green foxtail [2]; [7]) was 85, the “Plant response rating, Green foxtail” value (Green foxtail [2]; [7]) was 85 and the “Green foxtail plant response rating” value (Green foxtail [2]; [8]) was 100. For the same compound, the “Plant response rating, Green foxtail” value (Green foxtail [2]; [8]) was 100, the “Plant response rating, Green foxtail” value (Green foxtail [2]; Rate 250 g/ha; Preemergence; 0 to 100 scale) was 100 and the “Plant response rating, Green foxtail” value (Green foxtail [2]; Rate 500 g/ha, Preemergence; 0 to 100 scale) was 100. The “Plant response rating, Purple nutsedge” value (purple nutsedge; [3]) was 0, the “Plant response rating, Purple nutsedge” value (purple nutsedge; [4]) was 0 and the “Purple nutsedge plant response rating” value (purple nutsedge; [5]) was 0. The “Purple nutsedge plant response rating” value (purple nutsedge; [6]) was 0, the “Plant response rating, Purple nutsedge” value (purple nutsedge; Rate 250 g/ha) was 0 and the “Plant response rating, Purple nutsedge” value (purple nutsedge; Rate 500 g/ha) was 0. The “Plant response rating, Guineagrass” value (guineagrass; [3]) was 0, the “Plant response rating, Guineagrass” value (guineagrass; [4]) was 30 and the “Plant response rating, Guineagrass” value (guineagrass; [5]) was 30. For the same compound, the “Plant response rating, Guineagrass” value (guineagrass; [6]) was 85, the “Plant response rating, Guineagrass” value (guineagrass; Rate 250 g/ha) was 98 and the “Plant response rating, Guineagrass” value (guineagrass; Rate 500 g/ha) was 100. The “Plant response rating, Bermudagrass” value (bermuda-grass; [3]) was 75, the “Plant response rating, Bermudagrass” value (bermuda-grass; [4]) was 98 and the “Plant response rating, Bermudagrass” value (bermuda-grass; [5]) was 98. For the same compound, the “Plant response rating, Bermudagrass” value (bermuda-grass; [6]) was 100, the “Plant response rating, Bermudagrass” value (bermuda-grass; Rate 250 g/ha) was 100 and the “Plant response rating, Bermudagrass” value (bermuda-grass; Rate 500 g/ha) was 100. The “Plant response rating, Spanishneedles” value (Spanishneedles; [3]) was 0, the “Plant response rating, Spanishneedles” value (Spanishneedles; [4]) was 0 and the “Spanishneedles plant response rating” value (Spanishneedles; [5]) was 0. For the same compound, the “Spanishneedles plant response rating” value (Spanishneedles; [6]) was 0, the “Plant response rating, Spanishneedles” value (Spanishneedles; Rate 500 g/ha) was 10 and the “Plant response rating, Itchgrass” value (itchgrass; [3]) was 40. The “Plant response rating, Itchgrass” value (itchgrass; [4]) was 40, the “Plant response rating, Itchgrass” value (itchgrass; [5]) was 40 and the “Plant response rating, Itchgrass” value (itchgrass; [6]) was 50. For the same compound, the “Plant response rating, Itchgrass” value (itchgrass; Rate 250 g/ha) was 50, the “Plant response rating, Itchgrass” value (itchgrass; Rate 500 g/ha) was 50 and the “Plant response rating, Dallisgrass” value (dallisgrass; [3]) was 0. The “Plant response rating, Dallisgrass” value (dallisgrass; [4]) was 75, the “Plant response rating, Dallisgrass” value (dallisgrass; [5]) was 75 and the “Plant response rating, Dallisgrass” value (dallisgrass; [6]) was 98. The “Plant response rating, Dallisgrass” value (dallisgrass; Rate 250 g/ha) was 98, the “Plant response rating, Dallisgrass” value (dallisgrass; Rate 500 g/ha) was 100 and the “Plant response rating, Tall Mallow” value (tall mallow; [3]) was 0. For the same compound, the “Plant response rating, Tall Mallow” value (tall mallow; [4]) was 0, the “Tall Mallow plant response rating” value (tall mallow; [5]) was 0 and the “Tall Mallow plant response rating” value (tall mallow; [6]) was 0. For the same compound, the “Plant response rating, Tall Mallow” value (tall mallow; Rate 250 g/ha) was 0, the “Plant response rating, Tall Mallow” value (tall mallow; Rate 500 g/ha) was 0 and the “Plant response rating Large crabgrass” value (large crabgrass; [3]) was 75. The “Plant response rating Large crabgrass” value (large crabgrass; [4]) was 75, the “Plant response rating Large crabgrass” value (large crabgrass; [5]) was 85 and the “Plant response rating Large crabgrass” value (large crabgrass; [6]) was 100. The “Plant response rating Large crabgrass” value (large crabgrass; Rate 250 g/ha) was 100 and the “Plant response rating Large crabgrass” value (large crabgrass; Rate 500 g/ha) was 100.
